In data set [1] the target is T1, SHP2 (Homo sapiens (Human), UniProt Q06124). As to conditions: according to WO2019183367, cited from earlier work.
Data set [2] can be described thus: In vitro metabolic stability in liver microsomes, human. The class given is in vitro ADME. In short, it runs like this: (§1)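 Liver microsomes (20 mg/mL stock; species per assay) pre-incubated with test compound at 37 °C for 10 min in phosphate buffer pH 7.30 with MgCl2, reaction started with NADPH. Samples taken at 0, 5, 15 and 45 min and quantified by LC-MS/MS. t½ and CLint derived from first-order log-linear decline of percentage remaining.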

The target of data set [3] is T1, SHP2. Kind of data set: SHP2 allosteric inhibitory enzyme activity assay (DiFMUP fluorescence). The class given is biochemical. As to conditions: read-out: SHP2 enzymatic activity IC50. In short, it runs like this:
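Human SHP2 (0.2 ng) preincubated 1 h at room temperature with 25 µM activating peptide IRS1_pY1172(dPEG8)pY1222 and compound (10-point series from 10 µM) in HEPES/NaCl/KCl/BRIJ-35/EDTA/DTT buffer. DiFMUP then added for 1 h; fluorescence at ex 340/em 450 nm, normalized to no-enzyme and no-inhibitor controls, IC50 from variable-slope fit.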

The nature of data set [4]: In vitro metabolic stability in liver microsomes, mouse. The class given is in vitro ADME. Background: Liver microsomes are a subcellular fraction often used to study metabolism.
Data set [5] is described as follows: In vitro metabolic stability in liver microsomes, rat. The class given is in vitro ADME. The method in brief: as §1
Data set [6] can be described thus: In vitro metabolic stability in liver microsomes, monkey. The class given is in vitro ADME.
For another data set, the target named is hERG potassium channel (Homo sapiens (Human), UniProt Q12809).
The test system of the next data set is leukemia cells MV-4-11. Kind of data set: Cell proliferation assay, CELL TITER-GLO (CTG) luminescence, MV-4-11. Particulars: cultured for 120 hrs. It is filed as cell-based. In short, it runs like this:
(§2)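 NCI-H358 (2000 cells/well, ultra-low-attachment plates) and MV-4-11 cells were dosed 24 h after seeding at 1000 nM down to 0.1524 nM (3-fold steps). Viable-cell ATP was read by CellTiter-Glo luminescence after 96 h for NCI-H358 and 120 h for MV-4-11. IC50 came from a variable-slope fit of inhibition versus the 0 nM control.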

For data set [7], the system named is lung cancer cells NCI-H358. Description: Cell proliferation assay, CELL TITER-GLO (CTG) luminescence, NCI-H358. The class given is cell-based. As to conditions: ultra-low adsorption plate, cultured for 96 hrs. In short, it runs like this:
as §2
(In general: Cellular ATP, detected with luciferase, serves as a proxy for viable cell number.)

The nature of data set [8]: In vitro metabolic stability in liver microsomes, dog. It is filed as in vitro ADME. Particulars: dog, microsomes.

The values below come from patent US20230339882A1, “SHP2 INHIBITOR AND COMPOSITION AND APPLICATION THEREOF” (Betta Pharmaceuticals Co., Ltd., priority 2020, published 2023).

Where two headings read alike, the source gives them in different places.

T1 sequence (Q06124 whole entry): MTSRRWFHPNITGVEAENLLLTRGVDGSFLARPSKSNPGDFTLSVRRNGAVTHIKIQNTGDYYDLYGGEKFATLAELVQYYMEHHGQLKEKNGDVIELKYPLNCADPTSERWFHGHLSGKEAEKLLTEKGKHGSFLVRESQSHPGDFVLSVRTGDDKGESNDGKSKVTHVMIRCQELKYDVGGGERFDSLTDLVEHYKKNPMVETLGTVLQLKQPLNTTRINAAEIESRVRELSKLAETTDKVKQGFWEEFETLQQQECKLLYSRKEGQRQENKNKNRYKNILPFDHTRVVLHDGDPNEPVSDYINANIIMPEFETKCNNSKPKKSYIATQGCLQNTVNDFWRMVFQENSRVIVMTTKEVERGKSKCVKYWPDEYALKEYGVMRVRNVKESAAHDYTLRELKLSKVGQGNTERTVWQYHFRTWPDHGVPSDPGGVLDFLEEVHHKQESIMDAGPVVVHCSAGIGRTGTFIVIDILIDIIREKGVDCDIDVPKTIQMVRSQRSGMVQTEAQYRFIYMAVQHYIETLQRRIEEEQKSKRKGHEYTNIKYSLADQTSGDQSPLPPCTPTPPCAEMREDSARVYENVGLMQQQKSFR
hERG potassium channel, sequence (Q12809 whole entry): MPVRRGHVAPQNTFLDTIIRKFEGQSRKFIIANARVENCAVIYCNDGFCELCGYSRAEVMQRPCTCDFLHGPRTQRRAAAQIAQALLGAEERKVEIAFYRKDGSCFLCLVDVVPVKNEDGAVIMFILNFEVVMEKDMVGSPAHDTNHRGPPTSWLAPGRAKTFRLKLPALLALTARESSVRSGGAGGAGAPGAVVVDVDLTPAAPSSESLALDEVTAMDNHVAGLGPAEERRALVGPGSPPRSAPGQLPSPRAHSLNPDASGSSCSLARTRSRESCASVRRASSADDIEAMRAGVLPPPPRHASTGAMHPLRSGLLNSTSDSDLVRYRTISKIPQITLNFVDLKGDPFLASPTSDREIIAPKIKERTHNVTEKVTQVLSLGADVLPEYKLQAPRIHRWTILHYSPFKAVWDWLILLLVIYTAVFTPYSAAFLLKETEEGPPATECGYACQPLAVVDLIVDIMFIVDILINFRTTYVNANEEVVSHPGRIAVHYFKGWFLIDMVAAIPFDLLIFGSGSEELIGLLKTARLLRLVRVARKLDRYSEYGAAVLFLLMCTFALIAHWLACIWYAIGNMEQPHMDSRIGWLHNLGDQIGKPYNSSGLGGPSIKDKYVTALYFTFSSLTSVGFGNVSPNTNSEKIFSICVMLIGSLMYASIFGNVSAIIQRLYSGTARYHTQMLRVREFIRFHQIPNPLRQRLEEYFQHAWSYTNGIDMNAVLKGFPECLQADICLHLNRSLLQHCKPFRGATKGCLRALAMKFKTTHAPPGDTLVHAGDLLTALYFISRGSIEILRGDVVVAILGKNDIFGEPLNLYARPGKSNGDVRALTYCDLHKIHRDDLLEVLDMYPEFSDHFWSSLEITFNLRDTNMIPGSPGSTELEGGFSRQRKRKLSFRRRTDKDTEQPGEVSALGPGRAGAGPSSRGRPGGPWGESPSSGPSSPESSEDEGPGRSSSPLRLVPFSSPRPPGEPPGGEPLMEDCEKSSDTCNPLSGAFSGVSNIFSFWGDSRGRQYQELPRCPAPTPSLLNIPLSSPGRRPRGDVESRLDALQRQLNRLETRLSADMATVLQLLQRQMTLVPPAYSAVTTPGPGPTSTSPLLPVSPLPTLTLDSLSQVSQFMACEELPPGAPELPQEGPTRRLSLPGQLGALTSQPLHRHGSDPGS
Protocol for hERG potassium channel: Example C Patch Clamp Experiments to Assess the Effects of Compounds on the hERG Ion Channel
Dilute the test sample diluent in sequence with extracellular fluid to prepare detection solutions with final concentrations of 0.3 µM, 1 µM, 3 µM, 10 µM and 30 µM. The solubility of the samples to be tested was visually checked.
The cell line was derived from HEK293 cells and cultured in a 37° C., 5% CO2 incubator. In order to prevent cell senescence caused by contact inhibition, when the cell culture confluence should not exceed 80%, the cells should be passaged every ¾ days, and the inoculation density of each T175 flask should be 2*106 cells. Pre-wash with Phosphate Buffered Saline (PBS), then trypsin/EDTA for 2-3 minutes, stop digestion by adding cell culture medium, and transfer to a new culture bottle.
HEK293 cells overexpressing the hERG potassium channel were cultured overnight at a cell density below 50%. Experimental cells were transferred to a cell bath embedded in an inverted microscope stage(Diaphot, Nikon) and perfused with extracellular fluid. The extracellular fluid contained 130 mM NaCl, 4 mM KCl, 1.8 mM CaCl2, 1 mM MgCl2, 10 mM glucose and 10 mM HEPES (pH 7.4 with NaOH) at a perfusion rate of 4 ml/min. The inner tube contains 130 mM KCl, 1 mM MgCl2, 5 mM EGTA, 5 mM MgATP and 10 mM HEPES (pH 7.2 with KOH). Membrane currents were recorded using a HEKA EPC-10 patch-clamp amplifier and [sequence] acquisition system (HEKA Instruments Inc., D-67466 Lambrecht, Pfalz, Germany). All experiments were done at room temperature (22-23° C.).
Electrodes (BF150-86-10) were straightened during the experiments using a P-97 microelectrode puller (Sutter Instrument Company, One Digital Drive, Novato, CA 94949). The inner diameter of the electrode is 1-1.5 mm, and the water entry resistance after filling with internal liquid is 2-4 MΩ.
When the whole-cell seal is formed, wait for the current to stabilize for 2 minutes (the current decay is less than 5% within 5 minutes, and the tail current value is greater than500 pA). At this time, the peak value of the tail current is the control current value. The extracellular fluid containing the drug to be tested is then perfused. The same procedure was repeated 3-5 times, exposing each cell to 4-6 increasing concentrations of compounds. Blocking and deactivation of hERG during compound exposure and washout were continuously recorded.
When the whole-cell seal was formed, the cell membrane voltage was clamped at -80 mV, depolarized for 2 seconds every 12 seconds, and the clamping voltage was depolarized from -80 mV to -50 mV under a 5-second repolarization pulse of -50 mV. Measure the peak tail current.
Peak hERG tail currents were measured under a 5 s repolarization pulse of -50 mV. Each drug concentration was plotted against the current inhibition rate as a function of the logarithm of the compound concentration. The following Hill equation was used to fit a concentration-response curve to fit IC50.
Y: test value; Bottom: the lowest test value (0); Top: the highest test value (1); Hillcoefficient: the maximum absolute value of the slope of the curve.
Data are presented as mean ± standard deviation.

As for `N[C@@H]1c2ccccc2CC12CCN(c1ncc(Sc3ccnc(Cl)c3Cl)nc1CO)CC2` [compound 243], the IC50 (commonly the concentration at which inhibition is half-maximal) on SHP2 [1] (read-out: IC50 in the SHP2 allosteric inhibition test (lower bound)) is over 50 nM; at SHP2 [1] (read-out: IC50 in the SHP2 allosteric inhibition test (upper bound)), at most 1000 nM.

For the compound `NC(=O)c1ccc(NCC#Cc2cnc(N3CCC4(CC3)Cc3ccccc3[C@H]4N)c(CO)n2)cc1` [Compound A48, (S)-4-((3-(5-(1-amino-1,3-dihydrospiro[indene-2,4′-piperidin]-1′-yl)-6-(hydroxymethy 1)pyrazin-2-yl)prop-2-yn-1-yl)amino)benzamide], in data set [2], the “CLint (µL/min/mg protein) human” value came out at 7.3 µL/min/mg protein. The concentration for half-maximal inhibition (IC50) at SHP2 [3] is 2 nM; at hERG potassium channel, over 20 µM; in the data set with leukemia cells MV-4-11, 1.7 nM; in [7] it was 12 nM. In addition, the “CLint (µL/min/mg protein) mouse” value in data set [4] came out at 15.2 µL/min/mg protein. Moreover, in [5], the “CLint (µL/min/mg protein) rat” value was 15.8 µL/min/mg protein. Besides, the “CLint (µL/min/mg protein) monkey” value in data set [6] is reported as 8.6 µL/min/mg protein. Also, the “CLint (µL/min/mg protein) dog” value in data set [8] was determined as 26.3 µL/min/mg protein.
